For orientation: Ki means a dissociation constant, usually derived from enzyme kinetics or from competition with a known ligand. Low readings indicate higher affinity, high ones lower affinity.

Assay [1] deals with E. coli DH5α cells with TKH3. Nature of the assay: growth of DH5α with TKH3 on M63 minimal plates with glufosinate. Conditions: 20 mM glufosinate. Format: cell-based. The method, then: To obtain the gene(s) responsible for the strain's resistance to glufosinate, a small insert plasmid genomic library was prepared from strain ATX 20345. Genomic DNA was extracted from a fresh, overnight LB culture using SDS, proteinase K cell lysis followed by CTAB/NaCl, phenol-chloroform extractions. Partial digests were performed on the genomic DNA using 0.1 units Sau3A I at 37° C. for 30 minutes followed by the addition of EDTA and incubation at 65° C. for 20 minutes to halt the reaction. Resultant DNA was approximately 4-12 kb in size. The DNA was gel purified, treated with T4 polynucletide kinase, then ligated into BamH I digested pUC18 vector. Ligations were transformed into DH5a and plated directly on M63 minimal media plates containing 20 mM glufosinate, 100 μg/ml carbenicillin, and 0.1 mM IPTG. After several days, 4 colonies had appeared, tentatively named TKH1-4. They were grown up and plasmid DNA was isolated and analyzed by digestion with EcoR I+ Hind III, and Pst I/Sac Ito compare inserts. Though all four clones contained inserts, TKH2 and TKH3 were identical by restriction digest analysis, and both contained inserts of approximately 4.9 kb.
To reconfirm that TKH2 and TKH3 confer resistance to 20 mM glufosinate, the purified plasmids were retransformed into DH5α cells. pUC18 was retransformed as a negative control. […]

The target in assay [2] is T1, Serratia marcescens ATX 20345 glutamine synthetase AGS1, wild type, SEQ ID NO:2 (Serratia marcescens, UniProt A0A0F6KS08).
T1 construct: gene cloned as pAX685; dodecamer from known biology
Put plainly: enzymatic assay, kinetics of wild-type AGS1. It counts as biochemical. An excerpt: (§1) ags1m1 (pAX3421) and ags1m2 (pAX3422) were subcloned into E. coli expression vector pRSF1B (Invitrogen) so as to create an N-terminus encoding a 6Xhis tag, purified and characterized kinetically.
(§2) ags1m21 (SEQ ID NO:41) encodes the AGS1m21 protein (SEQ ID NO:42). AGS1m21 is a variant of AGS1 that contains a similar amino acid change identified in other variants (V214M), as well as two novel mutations (N160S and G167R). This enzyme was expressed in E. coli, purified, and the kinetic values Km(glutamate) and Ki(glufosinate) of the variant measured by enzymatic assay.
(§3) The unmodified enzyme (AGS1) was compared to AGS1(AD-) and AGS1m17(AD-) by carrying out enzymatic assays on both enzymes following purification from E. coli. A glutamine synthetase enzyme from E. coli (GlnA) was also tested.

The test system of assay [3] is E. coli cells with AGS1 variant AGS1m19, F81S, P185S, H212S, V214A, G218S, I303N, SEQ ID NO:38. Nature of the assay: growth of E. coli on glufosinate plates, ags1m19. It counts as cell-based. As to the method:
(§4) Clones expressing AGS1m17, AGS1m18, AGS1m19, or AGS1m20 were all found to be able to grow on plates containing 375 mM glufosinate, whereas no growth of clones expressing AGS1m16 was observed on plates containing 375 mM glufosinate.

Assay [4] concerns the target Serratia marcescens glutamine synthetase AGS1 variant AGS1m21, N160S, G167R, V214M, SEQ ID NO:42 (Serratia marcescens, UniProt A0A0F6KS08, G167R/N160S/V214M). Nature of the assay: enzymatic assay, kinetics of AGS1m21. It counts as biochemical.
Description: as §2

Assay [5] concerns ags1 glutamine synthetase enzyme. Nature of the assay: Enzymatic activity of purified 6Xhis-tagged glutamine synthetases with and without glufosinate. Conditions: 100 uM glufosinate. Format: biochemical, Serratia marcescens.
Description: as §1

Assay [6] concerns the target Serratia marcescens glutamine synthetase AGS1 variant AGS1(AD-), tyrosine 398 to phenylalanine, SEQ ID NO:44 (Serratia marcescens, UniProt A0A0F6KS08, Y398F). Nature of the assay: enzymatic assay, kinetics of AGS1(AD-). Format: biochemical. As to the method: ags1(ad-) (SEQ ID NO:43) encoding the AGS1(AD-) protein (SEQ ID NO:44), is a variant of ags1 in which the putative adenylylation site has been removed by mutating the tyrosine at position 398 of AGS1 to a phenylalanine by site directed mutagenesis.
as §3

For assay [7], the system named is E. coli cells with AGS1 variant AGS1m7 (pAX3431), G168C, V214M, K395R, SEQ ID NO:14. Nature of the assay: growth of E. coli on glufosinate plates, ags1m7. Conditions: 2, 10, 20, 50, and 100 mM; DH5a; Clone 10. It counts as cell-based. The method, then:
(§5) Mutants of the bacterial glutamine synthetase gene ags1 (SEQ ID NO:1) were created by error-prone mutagenesis using the GENEMORPH® Random Mutagenesis kit, and also using oligo-directed mutagenesis as known in the art. However, many methods are available for creating libraries of mutants. The resulting mutants were cloned into a pUC19 vector, electroporated into either XL-1 or DH5 alpha E. coli cells, and selected for growth on M63+ agar media containing antibiotic and 2, 10, or 20 mM glufosinate. Twenty-two clones were identified as growing on 20 mM glufosinate, and picked for further analysis.

The subject of assay [8] is E. coli cells with AGS1 variant AGS1m1 (pAX3421), V39I, V214M, SEQ ID NO:4. Put plainly: growth of E. coli on glufosinate plates, ags1m1. Format: cell-based. The method, then:
as §5
ags1m2 was mutagenized by error-prone mutagenesis using GENEMORPH® II Random Mutagenesis kit (Stratagene) according to manufacturer's instructions. Mutagenized PCR product was digested with Sac I and Hind III, and ligated into a pUC vector, similarly digested with Sac I and Hind III. Ligations were transformed into E. coli cells, and plated onto M63+ plates containing antibiotic, and 125 mM glufosinate. Clones growing on 125 mM glufosinate plates were retested on 200 mM glufosinate plates, and compared to similar platings of ags1m1 and ags1m2. […] The DNA sequence of the ags open reading frame in pAX3439 was sequenced, and the gene designated as ags1m16. The DNA sequence of ags1m16 is represented herein as SEQ ID NO:31, and the amino acid sequence is represented herein as SEQ ID NO:32. […]

The subject of assay [9] is E. coli cells with AGS1 variant AGS1m18, F81S, P185S, H212T, V214S, G218S, I303N, SEQ ID NO:36. Nature of the assay: growth of E. coli on glufosinate plates, ags1m18. Format: cell-based. As to the method: as §4
The subject of assay [10] is E. coli cells with AGS1 variant AGS1m20, F81S, P185S, H212M, V214H, G218S, I303N, SEQ ID NO:40. Put plainly: growth of E. coli on glufosinate plates, ags1m20. It counts as cell-based. The method, then:
as §4

Setting [11] is: Table 5, Km glutamate, Ki glufosinate.

T1 sequence (A0A0F6KS08 entry or part of it): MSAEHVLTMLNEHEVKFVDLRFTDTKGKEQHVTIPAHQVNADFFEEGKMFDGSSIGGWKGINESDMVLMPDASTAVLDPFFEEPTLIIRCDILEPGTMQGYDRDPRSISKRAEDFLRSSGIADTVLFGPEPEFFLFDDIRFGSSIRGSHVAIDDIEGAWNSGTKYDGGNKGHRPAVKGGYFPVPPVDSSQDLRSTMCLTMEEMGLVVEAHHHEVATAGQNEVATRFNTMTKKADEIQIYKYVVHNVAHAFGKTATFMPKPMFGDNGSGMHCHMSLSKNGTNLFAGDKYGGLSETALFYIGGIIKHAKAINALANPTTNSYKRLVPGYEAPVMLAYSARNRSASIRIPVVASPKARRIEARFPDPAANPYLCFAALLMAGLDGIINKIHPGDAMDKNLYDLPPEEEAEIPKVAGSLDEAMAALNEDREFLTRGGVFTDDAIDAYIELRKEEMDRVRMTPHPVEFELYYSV
Sequence of Serratia marcescens glutamine synthetase AGS1 variant AGS1(AD-), tyrosine 398 to phenylalanine, SEQ ID NO:44 (A0A0F6KS08 whole entry Y398F): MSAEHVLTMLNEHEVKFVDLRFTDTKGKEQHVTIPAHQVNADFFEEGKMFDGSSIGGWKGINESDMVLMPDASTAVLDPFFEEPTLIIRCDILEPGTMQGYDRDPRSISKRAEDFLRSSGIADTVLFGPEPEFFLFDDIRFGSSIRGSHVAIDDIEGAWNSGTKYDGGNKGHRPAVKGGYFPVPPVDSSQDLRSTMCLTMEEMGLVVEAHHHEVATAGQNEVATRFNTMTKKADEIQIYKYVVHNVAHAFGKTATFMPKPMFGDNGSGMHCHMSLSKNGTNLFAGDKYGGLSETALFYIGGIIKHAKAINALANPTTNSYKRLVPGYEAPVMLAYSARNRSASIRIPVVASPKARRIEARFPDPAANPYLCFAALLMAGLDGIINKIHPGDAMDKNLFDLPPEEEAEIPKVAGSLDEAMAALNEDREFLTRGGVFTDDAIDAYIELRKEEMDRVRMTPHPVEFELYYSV
Sequence of Serratia marcescens glutamine synthetase AGS1 variant AGS1m21, N160S, G167R, V214M, SEQ ID NO:42 (A0A0F6KS08 whole entry N160S/G167R/V214M): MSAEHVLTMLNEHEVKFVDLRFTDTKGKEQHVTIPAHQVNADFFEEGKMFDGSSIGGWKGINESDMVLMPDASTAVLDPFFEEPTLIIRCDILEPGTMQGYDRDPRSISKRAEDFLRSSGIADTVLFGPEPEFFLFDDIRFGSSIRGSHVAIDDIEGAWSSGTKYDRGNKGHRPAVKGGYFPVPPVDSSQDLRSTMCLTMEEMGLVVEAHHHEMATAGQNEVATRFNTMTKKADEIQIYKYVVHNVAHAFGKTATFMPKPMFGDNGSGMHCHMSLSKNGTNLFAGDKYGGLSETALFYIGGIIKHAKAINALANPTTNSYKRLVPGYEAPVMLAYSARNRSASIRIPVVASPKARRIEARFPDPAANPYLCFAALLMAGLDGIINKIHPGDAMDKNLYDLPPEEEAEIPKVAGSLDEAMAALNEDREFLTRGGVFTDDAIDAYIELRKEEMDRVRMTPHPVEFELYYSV

In the case of `CP(=O)(O)CCC(N)C(=O)O` (centres unmarked) [glufosinate], in [1], the “growth in the presence of glufosinate” value is recorded as “grew in the presence of glufosinate”. Moreover, the Ki in assay [2] was 13 µM; in assay [4], 2000 µM; in assay [6], 13 µM. Further, the inhibition by glufosinate result in assay [2] (100 uM glufosinate) is “completely inhibited”. Further, the “(Kcat*Ki)/Km” value is on record as 0.32 in assay [2] (setting [11]) and 12.59 in assay [6] (setting [11]). Also, the “growth on plates containing 375 mM glufosinate” value in [3], in assay [9] and in [10] was “able to grow” throughout. Besides, the “inhibition of wild type ags1 glutamine synthetase enzyme” value in assay [5] is listed as “completely inhibited”. The “growth on glufosinate minimal M63+ agar media” value in assay [7] is “shown to grow”; in assay [8] (2, 10, 20, 50, and 100 mM, DH5a, Clone 2), “shown to grow”. Further, the “growth on 200 mM glufosinate plates” value in assay [8] (200 mM glufosinate) is reported as “did not grow”.

Values taken from patent US8101389B2, “Bacterial glutamine synthetases and methods of use” (Athenix Corp, priority 2006, dated 2012).
